Patent publication US20250304623A1, “PEPTIDES FOR INTRACELLULAR DELIVERY” (UNIVERSIDADE DE SANTIAGO DE COMPOSTELA, priority 2022, published 2025)
*: point of attachment. NHNH2 = NN*

How the values were obtained:
Assay type in all cases: cell-based
HCT116 cells = experiment: RLuc pDNA delivery, robotic library screening, HCT116
[1] = test system: ARPE19 cells expressing EGFP; experiment: EGFP-targeting siRNA delivery (GFP silencing vs siMOCK), ARPE19
Experimental: (§1) To generate an EGFP expressing HeLa cell line, HeLa cells were transfected with EGFP pDNA (pEGFP-C1, Clontech) and stable transfectants were selected with 400 μg/mL of G-418 (Millipore). Green clones were selected by epifluorescence microscopy and tested for EGFP expression stability through several passages. […] All other EGFP-expressing cell lines were obtained in a similar way from parent non-EGFP-expressing cell lines.
Cells expressing EGFP were seeded in a 96 well plate the day before the experiment at a concentration of 50,000 cell/mL (100 μL/w) in DMEM+10% FBS+1% Gln-Abt. For robotic library screening, the delivery of an EGFP-targeting siRNA (EGFP: enhanced green fluorescent protein, Ambion® Silencer® GFP Positive Control siRNA (siGFP) (AM4626)) in six different cell lines expressing EGFP was performed. […] The mixture was shaken for 30 min at room temperature (rt) before the addition to the cells. The cell medium was aspirated, and cells were washed twice with PBS. Finally, 50 μL of the solution of siRNA/amphiphile complexes were added to the cells and incubated for 4 h. After transfection, the medium was replaced by 100 μL of fresh DMEM supplemented with 10% FBS. The fluorescence knockdown was quantified after 72 h in a plate reader, by comparison with cells transfected with a non-targeting siRNA control (siMOCK, Silencer™ Negative Control No. 1 siRNA (siMOCK) (AM4611)). EGFP knockdown was compared with Lipofectamine® RNAiMAX silencing efficiency (30-60% depending on cell line, defined with a numeric value in the below tables). All experiments were done in triplicate.
Tables 1-7: RLuc (pDNA) or EGFP (mRNA) expression levels were normalized to Lipofectamine reagents (value=1) and expressed as fold-times signal increase. In the case of siRNA, the siRNA treated cells fluorescence was compared with siMOCK control fluorescence, while Cas9-RNP mediated knockout was measured against the fluorescence of untreated cells. In both siRNA and Cas9-RNP, values are expressed as % fluorescence reduction. Amphiphile concentration was 5 μM in all cases. All experiments were performed in triplicate.
Tables 20-25 show the mean (triplicates) percentage of GFP-silencing, accounted by fluorescence intensity decrease relative to a non-targeting siRNA (siMOCK) control, measured after the transfection of siRNA by different amphiphiles at different concentrations in a variety of cell lines. Background values, accounted by untreated control cells, were subtracted for processing.

[2] = test system: ARPE19 cells expressing EGFP; experiment: Cas9-RNP delivery against EGFP (gene editing, plate reader), ARPE19
Experimental: as §1
Cells expressing EGFP were seeded in a 96 well plate the day before the experiment at a concentration of 50,000 cell/mL (100 μL/w) in DMEM+10% FBS+1% Gln-Abt. For robotic library screening, the delivery of Cas9-RNP against EGFP (RNP designed to knock-out the gene encoding for the enhanced green fluorescent protein (EGFP)) was performed. For RNP assembly, 9.2 μL of crRNA and 9.2 μL of tracrRNA were mixed in 211.6 μL of Nuclease-Free Duplex Buffer (IDT), incubated for 5 min at 95° C. and slowly cooled at rt (see I. Lostalé-Seijo, et al. Peptide/Cas9 nanostructures for ribonucleoprotein cell membrane transport and gene edition, Chem. Sci., 2017). Cas9 protein was dissolved in DMEM at a final concentration of 4 μM and equal volumes of the RNA complex and Cas9 were mixed and incubated for 5 min at rt. 75 μL of the corresponding amphiphile concentrations were added to 5 μL of RNP at 2 μM. The mixture was shaken for 30 min at room temperature before the addition to the cells. The cell medium was aspirated, and cells were washed twice with PBS. Cells were covered with 30 μL of DMEM and 20 μL of the RNP/amphiphile complexes were added to the cells (final peptide concentrations=2.5, 5 and 10 μM; final Cas9-RNP concentration=50 nM) and incubated for 4 h. After the incubation, the medium was replaced by 100 μL of fresh DMEM supplemented with 10% FBS. The total EGFP fluorescence was quantified after 72 h in a plate reader (FIG. 2, Table 1 (right) and Table 6). All experiments were done in triplicate. […]
Tables 26-31 show the mean (triplicates) percentage of gene editing, accounted by GFP fluorescence intensity decrease (% of reduction), measured after the transfection of Cas9-RNP by different amphiphiles at different concentrations in a variety of cell lines. Background values, accounted by untreated control cells, were subtracted for processing.

Substance	mean luminescent intensity (RLuc pDNA) (HCT116 cells; Dodecanal, 10 μM) [RLU]	mean luminescent intensity (RLuc pDNA) (HCT116 cells; Dodecanal, 15 μM) [RLU]	mean luminescent intensity (RLuc pDNA) (HCT116 cells; Myristoleyl, 5 μM) [RLU]	mean luminescent intensity (RLuc pDNA) (HCT116 cells; Myristoleyl, 10 μM) [RLU]	mean luminescent intensity (RLuc pDNA) (HCT116 cells; Myristoleyl, 15 μM) [RLU]	percentage of GFP-silencing relative to siMOCK ([1]; Dodecanal, 5 μM) [%]	percentage of GFP-silencing relative to siMOCK ([1]; Dodecanal, 10 μM) [%]	percentage of GFP-silencing relative to siMOCK ([1]; Dodecanal, 15 μM) [%]	percentage of GFP-silencing relative to siMOCK ([1]; Myristoleyl, 5 μM) [%]	percentage of gene editing, GFP fluorescence intensity decrease (% of reduction) ([2]; Dodecanal, 5 μM) [%]	percentage of gene editing, GFP fluorescence intensity decrease (% of reduction) ([2]; Myristoleyl, 15 μM) [%]	percentage of gene editing, GFP fluorescence intensity decrease (% of reduction) ([2]; Dodecanal, 15 μM) [%]	further results
Ac-RK*LRRK*L-NH2 (Ac-RK(NHNH2)LRRK(NHNH2)L-NH2; not fully specified; printed as Ac-RK*LRRK*L-NH2; also: K*2,K*6: native or modified lysine (ε-amide to a linker)) [Peptide 7.2]	729	684	−526	−505	−526	4	10	20	14	0	−8		mean luminescent intensity (RLuc pDNA) (HCT116 cells; Dodecanal, 5 μM): 911 RLU; percentage of GFP-silencing relative to siMOCK ([1]; Myristoleyl, 10 μM): 28%; percentage of gene editing, GFP fluorescence intensity decrease (% of reduction) ([2]; Dodecanal, 10 μM): 0%; percentage of gene editing, GFP fluorescence intensity decrease (% of reduction) ([2]; Myristoleyl, 5 μM): 3%
Ac-RK*LRRK*LRK*-NH2 (Ac-RK(NHNH2)LRRK(NHNH2)LRK(NHNH2)-NH2; not fully specified; printed as Ac-RK*LRRK*LRK*-NH2; also: K*2,K*6,K*9: native or modified lysine (ε-amide to a linker)) [Peptide 9.3]	1466	1854	16615	58572	19746	57	57	34	47	5	−25	−14	mean luminescent intensity (RLuc pDNA) (HCT116 cells; Oleyl, 15 μM): 1940 RLU; mean luminescent intensity (RLuc pDNA) (HCT116 cells; Palmitoleyl, 15 μM): 141026 RLU; mean luminescent intensity (RLuc pDNA) (HCT116 cells; Petroselinyl, 5 μM): 30301 RLU; mean luminescent intensity (RLuc pDNA) (HCT116 cells; Petroselinyl, 10 μM): 113431 RLU; mean luminescent intensity (RLuc pDNA) (HCT116 cells; Petroselinyl, 15 μM): 76316 RLU; percentage of GFP-silencing relative to siMOCK ([1]; Oleyl, 5 μM): 20%; percentage of GFP-silencing relative to siMOCK ([1]; Oleyl, 10 μM): 55%; percentage of GFP-silencing relative to siMOCK ([1]; Oleyl, 15 μM): 51%; percentage of GFP-silencing relative to siMOCK ([1]; Palmitoleyl, 5 μM): 51%; percentage of GFP-silencing relative to siMOCK ([1]; Palmitoleyl, 10 μM): 30%; percentage of GFP-silencing relative to siMOCK ([1]; Palmitoleyl, 15 μM): 11%; percentage of GFP-silencing relative to siMOCK ([1]; Petroselinyl, 5 μM): 18%; percentage of GFP-silencing relative to siMOCK ([1]; Petroselinyl, 10 μM): 49%; percentage of GFP-silencing relative to siMOCK ([1]; Petroselinyl, 15 μM): 52%; percentage of gene editing, GFP fluorescence intensity decrease (% of reduction) ([2]; Oleyl, 10 μM): 23%; percentage of gene editing, GFP fluorescence intensity decrease (% of reduction) ([2]; Oleyl, 15 μM): 22%; percentage of gene editing, GFP fluorescence intensity decrease (% of reduction) ([2]; Palmitoleyl, 5 μM): 3%; percentage of gene editing, GFP fluorescence intensity decrease (% of reduction) ([2]; Palmitoleyl, 15 μM): 8%; percentage of gene editing, GFP fluorescence intensity decrease (% of reduction) ([2]; Petroselinyl, 15 μM): −2%
Ac-RK*LRRLLRK*-NH2 (Ac-RK(NHNH2)LRRLLRK(NHNH2)-NH2; not fully specified; printed as Ac-RK*LRRLLRK*-NH2; also: K*2,K*9: native or modified lysine (ε-amide to a linker)) [Peptide 9.2]	819	1099	−544	−623	−617	13	34	30	24	−2		−17	
